# Measured values as given in patent US4992450A, “Piperidine opioid antagonists” (Eli Lilly and Company, priority 1989, dated 1991).
# Where a name gives a salt, the structure may show the parent alone. Read-outs that look alike come from different tables or passages of the source.
# Assays:
# [1] = test system: meal fed obese Zucker rats; assay: Food consumption assay in meal fed obese Zucker rats; assay type: in vivo; settings: Rattus norvegicus, sc, 4 h, amount to decrease food consumption 20% during first four hours
# Description: The following assay was employed to evaluate the ability of the compounds of the invention to effect food and water consumption of meal fed obese Zucker rats.
# According to this procedure, 3-4 month old obese Zucker rats were trained to eat food daily from 8:00 A.M. to 4:00 P.M. only, such that the body weight gain approximates that if the rats were fed ad libitum. These rats were allowed to consume water at all times. Four groups of rats with four rats in each group, two female and two male, were formed. One group served as control for the other three groups each day. Each of the other groups were given a subcutaneous dose of the compound to be evaluated. The test compound was formulated in physiological saline containing 10% dimethylsulfoxide by volume.
# Animals remained drug free for 4 days before the next test. Food and water consumption of each rat were measured for the first four hours. A test on one compound was run for three consecutive days. The drug effect was expressed as the percent of the control for that test day.
# In the Table, column 1 gives the Example Number of the compound evaluated; and column 2 provides the ED20 in mg/kg, wherein ED20 represents the amount of compound evaluated in mg/kg necessary to decrease food consumption 20% during the first four hours of the experiment.
# kappa receptor = target: T1, kappa receptor (Mus musculus, UniProt P33534); assay: in vivo; design: species or system CF-1 male mice; settings: sc, read-out: Kappa AD50
# T1 construct: Five CF-1 male mice (Charles River, Portage, Mich.); from tissue; host or cells: whole living CF-1 male mice (in vivo)
# T1 sequence (P33534 whole entry): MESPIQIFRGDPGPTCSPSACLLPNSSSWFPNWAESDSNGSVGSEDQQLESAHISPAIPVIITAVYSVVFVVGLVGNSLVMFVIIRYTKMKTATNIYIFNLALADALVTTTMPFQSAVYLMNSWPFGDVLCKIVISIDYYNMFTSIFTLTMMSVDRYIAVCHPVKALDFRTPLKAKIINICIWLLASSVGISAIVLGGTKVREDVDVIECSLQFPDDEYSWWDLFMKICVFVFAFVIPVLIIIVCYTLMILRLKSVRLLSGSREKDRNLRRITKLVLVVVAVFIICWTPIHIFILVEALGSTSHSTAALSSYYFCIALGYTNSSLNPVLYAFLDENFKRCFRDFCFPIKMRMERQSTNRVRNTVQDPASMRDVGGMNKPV
# mu receptor = target: T2, mu receptor (Mus musculus, UniProt P42866); assay: Mouse writhing assay, antagonism of morphine analgesia (mu); assay type: in vivo, CF-1 male mice; settings: sc, read-out: Mu AD50
# T2 construct: Five CF-1 male mice (Charles River, Portage, Mich.); from tissue; host or cells: whole living CF-1 male mice (in vivo)
# T2 sequence (P42866 whole entry): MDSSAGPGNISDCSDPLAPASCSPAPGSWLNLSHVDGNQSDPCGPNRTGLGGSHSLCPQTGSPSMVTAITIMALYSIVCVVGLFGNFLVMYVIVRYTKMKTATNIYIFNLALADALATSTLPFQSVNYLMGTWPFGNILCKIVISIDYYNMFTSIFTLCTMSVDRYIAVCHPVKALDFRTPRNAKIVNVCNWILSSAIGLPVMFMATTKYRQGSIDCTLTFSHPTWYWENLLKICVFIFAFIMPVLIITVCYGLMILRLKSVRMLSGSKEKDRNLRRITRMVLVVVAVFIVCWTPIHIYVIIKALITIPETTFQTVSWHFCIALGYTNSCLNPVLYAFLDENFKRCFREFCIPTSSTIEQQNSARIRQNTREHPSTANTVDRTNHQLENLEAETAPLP
# kappa receptors = target: T3, kappa receptors (Rattus norvegicus, UniProt P34975); assay: Rat diuresis assay, antagonism of bremazocine-induced urination; assay type: in vivo, male Long-Evans hooded rats; settings: sc, rats, s.c., urinary output reduced to 50% of effect of 0.08 mg/kg bremazocine alone
# T3 construct: sixty male Long-Evans hooded rats; from tissue; host or cells: whole living male Long-Evans hooded rats (in vivo)
# T3 sequence (P34975 whole entry): as the sequence (P33534 whole entry) above, with D11E, S17A, S51P, A308V counted along it
# Procedure: As such, the compounds of the invention were also evaluated in a rat diuresis assay conducted according to the following procedure described by Leander et al. in Drug Development Research 4:421-427 (1984) in an effort to further establish the ability of the present compounds to block kappa receptors.
# According to this procedure, sixty male Long-Evans hooded rats (Charles River Breeding Laboratories, Portage, Mich.) weighing between about 300 and 500 grams each were housed either individually or in pairs in a temperature-controlled (23° C.) colony room which was illuminated between 6:00 A.M. and 6:00 P.M. Rodent chow and tap water were continuously available except during the measurement of urine output. The animals were used repeatedly, but no more frequently than twice a week.
# The animals were then injected with various doses of the test compounds. To measure urine output, the animals were removed from the home cages, weighed, injected and placed in metabolism cages for 5 hr. Excreted urine was funneled into graduated cylinders. Cumulative urine volumes were determined at designated time intervals, usually at 2 and 5 hr after injection.
# The compounds which are salt forms were dissolved in distilled water. If necessary, the compounds were dissolved in distilled water with the aid of either a few drops of lactic acid or hydrochloric acid and gentle warming. All injections were s.c. in a volume of 1 ml/kg of body weight. During tests for antagonism, two injections were given, one on each side of the body.
# In the Table, column 1 provides the Example Number of the compound tested; column 2, the amount of compound in mg/kg necessary to reduce the urinary output to 50% of the effect produced by 0.08 mg/kg of bremazocine alone two hours after injection of bremazocine and the test compound; and column 3, the amount of compound in mg/kg necessary to reduce the urinary output to 50% of the effect produced by 0.08 mg/kg of bremazocine alone five hours after injection of bremazocine and the test compound.
# [2] = 2 h, two hours after injection, read-out: AD50 Two Hours
# [3] = 5 h, five hours after injection, read-out: AD50 Five Hours
smiles,measurement,setting,value
"O=C1CC[C@@]2(O)[C@H]3Cc4ccc(O)c5c4[C@@]2(CCN3CC2CC2)[C@H]1O5 [Compound F, naltrexone, reference compound]",ED20,[1],2.05 mg/kg
"CC1CN(CCCc2cccs2)CCC1(C)c1cccc(O)c1 (stereo not drawn) [Example 35, trans-(±)-1-[3-(2-Thienyl)propyl]-3,4-dimethyl-4-(3-hydroxyphenyl)piperidine hydrochloride]",ED50,kappa receptor,0.3 mg/kg
same,ED50,mu receptor,0.22 mg/kg
same,ED50,kappa receptors; [2],2.2 mg/kg
same,ED50,kappa receptors; [3],1.04 mg/kg
same,ED20,[1],0.08 mg/kg
"CCCCCN1CCC(C)(c2cccc(O)c2)C(C)C1 (stereo not drawn) [Example 14, trans-(±)-1-(n-Pentyl)-3,4-dimethyl-4-(3-hydroxyphenyl)piperidine hydrochloride]",ED50,kappa receptor,0.6 mg/kg
same,ED50,mu receptor,0.37 mg/kg
same,ED50,kappa receptors; [2],0.78 mg/kg
same,ED50,kappa receptors; [3],0.69 mg/kg
same,ED20,[1],4.47 mg/kg
"CC1CN(CCC2CCCCC2)CCC1(C)c1cccc(O)c1 (stereo not drawn) [Example 13, trans-(±)-1-(2-Cyclohexylethyl)-3,4-dimethyl-4-(3-hydroxyphenyl)piperidine hydrochloride]",ED50,kappa receptor,0.12 mg/kg
same,ED50,mu receptor,0.1 mg/kg
same,ED20,[1],4.56 mg/kg
"CC(C)CCCCN1CC[C@](C)(c2cccc(O)c2)[C@H](C)C1 (stereo in doubt) [Example 29, trans-(-)-1-(5-Methylhexyl)-3,4-dimethyl-4-(3-hydroxyphenyl)piperidine hydrochloride]",ED50,kappa receptor,0.89 mg/kg
same,ED50,mu receptor,0.35 mg/kg
same,ED20,[1],0.31 mg/kg
"C[C@@H]1CN(CCCc2cccs2)CC[C@]1(C)c1cccc(O)c1 (stereo in doubt) [Example 37, trans-(-)-1-[3-(2-Thienyl)propyl]-3,4-dimethyl-4-(3-hydroxyphenyl)piperidine hydrochloride]",ED50,kappa receptor,0.65 mg/kg
same,ED50,mu receptor,0.24 mg/kg
same,ED50,kappa receptors; [2],2.92 mg/kg
same,ED50,kappa receptors; [3],1.66 mg/kg
same,ED20,[1],0.19 mg/kg
"CCCC(O)CCN1CC[C@@](C)(c2cccc(O)c2)[C@@H](C)C1 (relative stereo) [Example 30, trans-(±)-1-[R,S-(3-Hydroxyhexyl)]-3,4-dimethyl-4-(3-hydroxyphenyl)piperidine hydrochloride]",ED50,kappa receptor,0.47 mg/kg
same,ED50,mu receptor,0.11 mg/kg
"C[C@H]1CN(CCC(=O)c2ccccc2)CC[C@@]1(C)c1cccc(O)c1 (relative stereo) [Compound C, 3-[4β-(3-Hydroxyphenyl)-3β,4α-dimethylpiperidino]propiophenone maleate, reference compound]",ED50,kappa receptor,4.5 mg/kg
same,ED50,mu receptor,0.14 mg/kg
same,ED20,[1],3.72 mg/kg
"CC1CN(CC2CCCC2)CCC1(C)c1cccc(O)c1 (stereo not drawn) [Example 5, trans-(±)-1-(Cyclopentylmethyl)-3,4-dimethyl-4-(3-hydroxyphenyl)piperidine hydrochloride]",ED50,kappa receptor,0.54 mg/kg
same,ED50,mu receptor,1.01 mg/kg
same,ED50,kappa receptors; [2],1.91 mg/kg
same,ED50,kappa receptors; [3],0.92 mg/kg
"C[C@H]1CN(CCC(O)C2CCCC2)CC[C@@]1(C)c1cccc(O)c1 (relative stereo) [Example 18, trans-(±)-1-[R,S-(1-Cyclopentylpropanol-3-yl)]-3,4-dimethyl-4-(3-hydroxyphenyl)piperidine hydrochloride]",ED50,kappa receptor,0.08 mg/kg
same,ED50,mu receptor,0.04 mg/kg
same,ED20,[1],0.07 mg/kg
"C[C@H]1CN(CCCc2cccs2)CC[C@@]1(C)c1cccc(O)c1 (stereo in doubt) [Example 36, trans-(+)-1-[3-(2-Thienyl)propyl]-3,4-dimethyl-4-(3-hydroxyphenyl)piperidine]",ED50,kappa receptor,0.11 mg/kg
same,ED50,mu receptor,0.05 mg/kg
same,ED50,kappa receptors; [2],4.65 mg/kg
same,ED50,kappa receptors; [3],1.65 mg/kg
same,ED20,[1],0.05 mg/kg
"CC1CN(CCCC2CCCC2)CCC1(C)c1cccc(O)c1 (stereo not drawn) [Example 9, trans-(±)-1-(3-Cyclopentylpropyl)-3,4-dimethyl-4-(3-hydroxyphenyl)piperidine hydrochloride]",ED50,kappa receptor,0.13 mg/kg
same,ED50,mu receptor,0.12 mg/kg
same,ED50,kappa receptors; [2],2.4 mg/kg
same,ED50,kappa receptors; [3],0.79 mg/kg
same,ED20,[1],1.25 mg/kg
"CCCCCCN1CCC(C)(c2cccc(O)c2)C(C)C1 (stereo not drawn) [Example 22, trans-(±)-1-(n-Hexyl)-3,4-dimethyl-4-(3-hydroxyphenyl)piperidine hydrochloride]",ED50,kappa receptor,0.11 mg/kg
same,ED50,mu receptor,0.05 mg/kg
same,ED50,kappa receptors; [2],1.31 mg/kg
same,ED50,kappa receptors; [3],0.7 mg/kg
same,ED20,[1],0.78 mg/kg
"CCCCCC(=O)CCN1CCC(C)(c2cccc(O)c2)C(C)C1 (stereo not drawn) [Example 32, trans-(±)-1-(3-Oxo-n-octyl)-3,4-dimethyl-4-(3-hydroxyphenyl)piperidine hydrochloride]",ED50,kappa receptor,3.5 mg/kg
same,ED50,mu receptor,0.17 mg/kg
"C=CCN1CC[C@]23c4c5ccc(O)c4O[C@H]2C(=O)CC[C@@]3(O)[C@H]1C5 [Compound E, naloxone, reference compound]",ED20,[1],1.4 mg/kg
"CCCCCCN1CC[C@@](C)(c2cccc(O)c2)[C@@H](C)C1 (stereo in doubt) [Example 1, trans-(+)-1-(n-Hexyl)-3,4-dimethyl-4-(3-hydroxyphenyl)piperidine hydrochloride]",ED50,kappa receptor,0.22 mg/kg
same,ED50,mu receptor,0.26 mg/kg
same,ED20,[1],0.08 mg/kg
"CC1CN(CCC(C)(C)C)CCC1(C)c1cccc(O)c1 (stereo not drawn) [Example 12, trans-(±)-1-(3,3-Dimethylbutyl)-3,4-dimethyl-4-(3-hydroxyphenyl)piperidine hydrochloride]",ED50,kappa receptor,0.42 mg/kg
same,ED50,mu receptor,0.56 mg/kg
same,ED50,kappa receptors; [2],7.89 mg/kg
same,ED50,kappa receptors; [3],8.13 mg/kg
"CC1CN(CCc2cccs2)CCC1(C)c1cccc(O)c1 (stereo not drawn) [Example 38, trans-(±)-1-[2-(2-Thienyl)ethyl]-3,4-dimethyl-4-(3-hydroxyphenyl)piperidine hydrochloride]",ED50,kappa receptor,0.25 mg/kg
same,ED50,mu receptor,0.25 mg/kg
same,ED50,kappa receptors; [3],2 mg/kg
"CC(C)C(O)CCN1CC[C@@](C)(c2cccc(O)c2)[C@@H](C)C1 (relative stereo) [Example 20, trans-(±)-1-[R,S-(3-Hydroxy-4-methylpentyl)]-3,4-dimethyl-4-(3-hydroxyphenyl)piperidine hydrochloride]",ED50,kappa receptor,0.35 mg/kg
same,ED50,mu receptor,0.14 mg/kg
same,ED20,[1],0.91 mg/kg
"CCCCCCN1CC[C@](C)(c2cccc(O)c2)[C@H](C)C1 (stereo in doubt) [Example 2, trans-(-)-1-(n-Hexyl)-3,4-dimethyl-4-(3-hydroxyphenyl)piperidine hydrochloride]",ED50,kappa receptor,0.29 mg/kg
same,ED50,mu receptor,0.21 mg/kg
same,ED20,[1],1.25 mg/kg
"CC1CN(CCC(=O)C2CCCCC2)CCC1(C)c1cccc(O)c1 (stereo not drawn) [Example 33, trans-(±)-1-(3-Oxo-3-cyclohexylpropyl)-3,4-dimethyl-4-(3-hydroxyphenyl)piperidine hydrochloride]",ED50,kappa receptor,0.26 mg/kg
same,ED50,mu receptor,0.12 mg/kg
"CC(C)CCCCN1CC[C@@](C)(c2cccc(O)c2)[C@@H](C)C1 (stereo in doubt) [Example 28, trans-(+)-1-(5-Methylhexyl)-3,4-dimethyl-4-(3-hydroxyphenyl)piperidine hydrochloride]",ED50,kappa receptor,0.22 mg/kg
same,ED50,mu receptor,0.08 mg/kg
same,ED20,[1],0.12 mg/kg
"CCCCCCCN1CCC(C)(c2cccc(O)c2)C(C)C1 (stereo not drawn) [Example 8, trans-(±)-1-(n-Heptyl)-3,4-dimethyl-4-(3-hydroxyphenyl)piperidine hydrochloride]",ED50,kappa receptor,0.64 mg/kg
same,ED50,mu receptor,0.21 mg/kg
same,ED50,kappa receptors; [2],3.77 mg/kg
same,ED50,kappa receptors; [3],3.33 mg/kg
same,ED20,[1],0.44 mg/kg
"C[C@H]1CN(CC[C@@H](O)C2CCCCC2)CC[C@@]1(C)c1cccc(O)c1 [Example 25, trans-(+)-1-[R-(3-Hydroxy-3-cyclohexylpropyl)]-3,4-dimethyl-4-(3-hydroxyphenyl)piperidine]",ED50,kappa receptor,0.36 mg/kg
same,ED50,mu receptor,0.03 mg/kg
same,ED20,[1],0.13 mg/kg
